In patent US9994566B2, “Compound of 5-hydroxyl-1,7-naphthyridine substituted by aryl or heteroaryl, preparation method thereof and pharmaceutical use thereof” (SHENYANG SUNSHINE PHARMACEUTICAL CO. LTD., priority 2015, dated 2018):
Where “and” joins values, the source holds several entries; their conditions need not be identical. Identical values can stand only once.

Key:
hepatoma cells Hep3B = test: Promotion of erythropoietin (EPO) expression in hepatoma cells Hep3B in vitro (ELISA); type: cell-based, Human; conditions: Hep3B supernatant, 24 hours, test doses 100 μmol/L and 10 μmol/L (dose of the tabulated value not given)
From the text: Biological Example 1: Development and Screening of In Vitro Detection Methods: Promotion of Erythropoietin Expression in Hepatoma Cells Hep3B In Vitro by HIF-PHD2 Inhibitor Compounds
The complete medium for culture of Experimental hepatoma cells Hep3B (China Center for Type Culture Collection, CCTCC) was MEM (Cat# GNM 41500, GIBCO, provided by Hangzhou Genom Biopharmaceutical Technology Co., Ltd) supplemented with 10% serum FBS (Cat#10099-141, GIBCO) and 1% P/S (Cat#GNM15140, provided by Hangzhou Genom Biopharmaceutical Technology Co., Ltd). Cells were cultured in a 37° C., 5% CO2 incubator. Experimental reagents included dimethyl sulfoxide (for molecular biology, >=99.9%, Catalog # D8418) purchased from Sigma. The ELISA kit was purchased from Quantikine IVD ELISA, Human Erythropoietin (R&D, DEP00). The test control AKB-6548 was prepared by the inventors or obtained by commercial purchase. The test substance was stored at −20° C. in the dark.
The test substance and the positive control substance were fully dissolved in sterile water or dimethylsulfoxide under dark conditions and prepared into a stock solution at a concentration of 10^−1 mol/L or 10^−2 mol/L. Each of the stock solutions was stored at −20° C. MEM medium containing 0.5% FBS was used as a diluent to dilute the stock solution of the test substance, to prepare a diluted test substance at a concentration of 100 μmol/L and 10 μmol/L. To a 96-well culture plate was added 200 μl/well (1.5 or 2.0×10^4 cells/well) of hepatoma cells Hep3B complete medium suspension and incubated overnight at 37° C. in a 5% CO2 incubator. The solution in the 96-well culture plate was removed and the cells were washed once with the MEM medium containing 0.5% FBS. 200 μl/well of the test substance was added in the dark, at a dose of 100 μmol/L and 10 μmol/L, and each dose set 2 wells, a test well and a spare well. A cell control well was prepared by replacing the test solution with the diluent (without test substance and solvent). A solvent control well was prepared by replacing the test solution with the diluent containing the corresponding concentration of solvent (dimethylsulfoxide) (without test substance). They were cultured in a 5% CO2 incubator at 37° C. for 24 hours. The supernatant was absorbed as a sample and cryopreserved at −20° C. for use. 100 μl/well of stop solution was added. OD value was detected by microplate reader A450 nm-A600 nm. The expression level of EPO (mIU/mL) promoted by the test substance was obtained according to the standard curve.

[1] = molecular target: HIF Prolyl hydroxylases 2 (PHD2) (Homo sapiens, UniProt Q9GZT9); test: PHD2 inhibition, fluorescence polarization (FP) detection of HIF-1α / VBC complex interaction; type: biochemical; conditions: PHD2 0.5 μg/μl, FAM-HIF (556-575) 1 μM, 30 minutes room temperature
Protocol: The interaction between hypoxia-inducible factor HIF-1α and VBC complex (von Hippel-Lindau protein-Elongin B-Elongin C, VBC) was detected by Fluorescence polarization (FP) method, to measure the enzyme inhibitory activity of the HIF Prolyl hydroxylases 2 (PHD2) inhibitor compounds.
Subsequently, the desired concentration of the test compound or the positive compound was added (the compound was replaced by the buffer in the negative control and the positive control). Finally, PHD2 was added at a final concentration of 0.5 μg/μl (PHD2 was replaced by the buffer in the negative control). They were mixed well and allowed to stand at room temperature for 30 minutes in the dark followed by 95° C. water bath for 1 minute, and then the reaction was terminated. After the temperature drops to room temperature, the sample was prepared well for use. EBC buffer (50 mM Tris.HCl, 120 mM NaCl, 0.5% NP-40) was added to the corresponding wells of a black 96-well test plate. A GST-VBC complex was added to the corresponding test wells at a final concentration of 300 nM (using the wells containing only EBC buffer as blank wells). Subsequently, the corresponding PHD2 prolyl hydroxylation reaction sample was added in the dark as a substrate with a final concentration of 100 nM. After mixing well, the lateral and longitudinal fluorescence intensity values were measured using a full-wavelength multifunctional microplate reader (TECAN infinite M1000) at an excitation wavelength of […] and an emission wavelength of 518 nm.
The fluorescence polarization (mP) was calculated: mP=1000×(lateral value−G factor×longitudinal value)/(lateral value+G factor×longitudinal value) wherein, lateral value=lateral fluorescence intensity value of test well−lateral fluorescence intensity value of blank well, longitudinal value=longitudinal fluorescence intensity value of test well−longitudinal fluorescence intensity value of blank well, […]
The IC50 was calculated using the non-linear regression data analysis method of Graphpad Prism 4.0 software ([…]).

male Balb/c mice = test: Effect on increasing erythrocyte of normal mice: reticulocyte (RETIC) count; type: in vivo; conditions: four hours after the last administration; for RETIC, individual mice (Mice No. 1-8): one value per mouse; for RETIC, Average: orbital blood
Protocol: Biological Example 3: Effect of the Compounds of the Present Invention on Increasing Erythrocyte of Normal Mice
80 male Balb/c mice were divided into 11 groups, with 8 animals for each drug group, 10 animals for blank control group. Drug group: AKB-6548, 100 mg/kg, oral administration, once a day×3; FG-4592, 25 mg/kg, oral administration, once a day×3; EPO, 100 IU/kg, Day 1 and Day 3, subcutaneous injection, as positive control groups. Each of the compounds of the present invention was orally administrated at 25 mg/kg, once a day×3. Four hours after the last administration, orbital blood of all animals were collected and treated with EDTA-K2 anticoagulant, and reticulocytes (RETIC) were counted with a blood cell automated analyzer.

[2] = 100 IU/kg, subcutaneous injection, Day 1 and Day 3

HIF Prolyl hydroxylases 2 (PHD2), sequence (Q9GZT9 whole entry, species assumed): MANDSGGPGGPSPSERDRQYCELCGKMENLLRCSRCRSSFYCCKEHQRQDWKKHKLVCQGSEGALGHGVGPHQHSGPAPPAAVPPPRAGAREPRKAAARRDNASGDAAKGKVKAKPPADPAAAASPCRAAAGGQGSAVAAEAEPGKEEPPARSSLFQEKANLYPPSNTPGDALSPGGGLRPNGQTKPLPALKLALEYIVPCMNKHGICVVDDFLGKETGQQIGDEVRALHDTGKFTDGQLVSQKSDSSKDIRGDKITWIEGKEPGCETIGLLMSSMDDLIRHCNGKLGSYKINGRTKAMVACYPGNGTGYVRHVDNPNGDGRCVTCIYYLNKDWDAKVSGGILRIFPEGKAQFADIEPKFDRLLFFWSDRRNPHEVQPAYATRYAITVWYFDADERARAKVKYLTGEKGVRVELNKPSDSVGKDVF

Row | Compound | IC50 [1] | EPO level of the test substance (hepatoma cells Hep3B) | also measured
1 | O=C(O)CNC(=O)c1ncc2nc(-c3cccc(Br)c3)ccc2c1O [Compound 13, 2-{5-hydroxy-2-(3-bromophenyl)-[1,7]-naphthyridine-6-formamido} acetic acid] | 0.41 µM | 0.832 mIU/mL | –
2 | COc1cccc(-c2ccc3c(O)c(C(=O)NCC(=O)O)ncc3n2)c1 [Compound 15] | 7.7 µM | 6.316 mIU/mL | RETIC, individual mice (Mice No. 1-8) (male Balb/c mice; 25 mg/kg, oral, once a day × 3): 4.9 (3×) and 4.6 and 4.1 and 3.7 and 3.8 and 3.1; RETIC, Average (male Balb/c mice; 25 mg/kg, oral, once a day × 3): 4.25
3 | N#Cc1ccc(-c2cnc(C(=O)NCC(=O)O)c(O)c2)cc1 [AKB-6548, reference compound] | – | 0.13 mIU/mL | RETIC, individual mice (Mice No. 1-8) (male Balb/c mice; 100 mg/kg, oral, once a day × 3, listed as AKB-6548-A): 5.3 (2×) and 6.1 and 4 (2×) and 4.2 (2×) and 4.9; RETIC, Average (male Balb/c mice; 100 mg/kg, oral, once a day × 3): 4.75
4 | O=C(O)CNC(=O)c1ncc2nc(-c3cccc4ccccc34)ccc2c1O [Compound 14, [(5-hydroxy-2-(naphthalene-1-yl)-[1,7]naphthyridine-6-carbonyl)-amino]-acetic acid] | 10 µM | 5.435 mIU/mL | RETIC, individual mice (Mice No. 1-8) (male Balb/c mice; 25 mg/kg, oral, once a day × 3): 4 (3×) and 3.8 and 4.1 and 5.8 and 3.4 and 4.3; RETIC, Average (male Balb/c mice; 25 mg/kg, oral, once a day × 3): 4.18
5 | O=C(O)CNC(=O)c1ncc2nc(-c3ccc4ccccc4c3)ccc2c1O [Compound 19, [(5-hydroxy-2-(naphthalen-2-yl)-[1,7]naphthyridine-6-carbonyl)-amino]-acetic acid] | 7.5 µM | 9.786 mIU/mL | –
6 | O=C(O)CNC(=O)c1ncc2nc(-c3cccs3)ccc2c1O [Compound 18] | 5.7 µM | 8.888 mIU/mL | –
7 | Cc1nc(C(=O)NCC(=O)O)c(O)c2ccc(-c3cccnc3)nc12 [Compound 5, 2-{5-hydroxy-8-methyl-[2-(3-pyridyl)]-[1,7]-naphthyridine-6-formamido} acetic acid] | 1.7 µM | 1.89 mIU/mL | –
8 | Cc1nc(C(=O)NCC(=O)O)c(O)c2ccc(Oc3ccccc3)cc12 [FG-4592, reference compound] | – | 0.378 mIU/mL | RETIC, individual mice (Mice No. 1-8) (male Balb/c mice; 25 mg/kg, oral, once a day × 3, listed as FG-4592-A): 3.6 and 3.8 (2×) and 4 (2×) and 3.5 and 4.4 and 3.4; RETIC, Average (male Balb/c mice; 25 mg/kg, oral, once a day × 3): 3.73
9 | Cc1nc(C(=O)NCC(=O)O)c(O)c2ccc(-c3cccc([N+](=O)[O-])c3)nc12 [Compound 21, 2-{5-hydroxy-[2-(3-nitro)-phenyl]-8-methyl-[1,7]-naphthyridine-6-formamido} acetic acid] | 14 µM | 0.325 mIU/mL | –
10 | EPO: erythropoietin, glycoprotein hormone; positive control given by subcutaneous injection | – | – | RETIC, individual mice (Mice No. 1-8) (male Balb/c mice; [2]): 5 and 5.9 and 2.5 and 2.2 (2×) and 2.6 and 4.3 and 5.1; RETIC, Average (male Balb/c mice; [2]): 3.73
11 | O=C(O)CNC(=O)c1ncc2nc(-c3ccccc3)ccc2c1O [Compound 1] | 18 µM | 0.71 mIU/mL | –
12 | O=C(O)CNC(=O)c1ncc2nc(-c3ccc(Br)cc3)ccc2c1O [Compound 17, 2-{5-hydroxy-[2-(4-bromo)-phenyl)-[1,7]-naphthyridine-6-formamido} acetic acid] | 20 µM | 7.757 mIU/mL | –
13 | O=C(O)CNC(=O)c1ncc2nc(-c3ccc(Cl)cc3)ccc2c1O [Compound 8] | 43 µM | 0.68 mIU/mL | –
14 | O=C(O)CNC(=O)c1ncc2nc(-c3cccc(F)c3)ccc2c1O [Compound 20, 2-{5-hydroxy-[2-(3-fluoro)-phenyl]-[1,7]-naphthyridine-6-formamido} acetic acid] | 0.82 µM | 10.685 mIU/mL | –
15 | CC(C)(C)c1ccc(-c2ccc3c(O)c(C(=O)NCC(=O)O)ncc3n2)cc1 [Compound 16] | 48 µM | 7.046 mIU/mL | –

Now from value to compound, other results behind:

Row | IC50 [1] | Compound | EPO level of the test substance (hepatoma cells Hep3B) | also measured
16 | 6.9 µM | COc1cccc(-c2ccc3c(O)c(C(=O)NCC(=O)O)nc(C)c3n2)c1 [Compound 4, 2-{5-hydroxy-[2-(3-methoxy)-phenyl]-8-methyl-[1,7]-napthyridine-6-formamido} acetic acid] | 1.512 mIU/mL | –
17 | 85 µM | Cc1nc(C(=O)NCC(=O)O)c(O)c2ccc(-c3ccc(Cl)cc3)nc12 [Compound 3, 2-{5-hydroxy-[2-(4-chloro)-phenyl]-8-methyl-[1,7]-naphthyridine-6-formamido} acetic acid] | 0.52 mIU/mL | –
18 | 4.1 µM | Cc1nc(C(=O)NCC(=O)O)c(O)c2ccc(-c3cccc(Br)c3)nc12 [Compound 12, 2-{5-hydroxy-[2-(3-bromo)-phenyl]-8-methyl-[1,7]-naphthyridine-6-formamido} acetic acid] | 4.536 mIU/mL | –
19 | 11 µM | COc1ccc(-c2ccc3c(O)c(C(=O)NCC(=O)O)ncc3n2)cc1 [Compound 2, 2-{5-hydroxy-[2-(4-methoxy)-phenyl]-[1,7]-naphthyridine-6-formamido} acetic acid] | 0.64 mIU/mL | –
20 | 39 µM | Cc1nc(C(=O)NCC(=O)O)c(O)c2ccc(-c3ccc(C(C)(C)C)cc3)nc12 [Compound 11, 2-{5-hydroxy-8-methyl-[2-(4-tert-butyl)-phenyl]-[1,7]-naphthyridine-6-formamido} acetic acid] | 4.158 mIU/mL | –
21 | 63 µM | COc1ccc(-c2ccc3c(O)c(C(=O)NCC(=O)O)nc(C)c3n2)cc1 [Compound 10, 2-{5-hydroxy-8-methyl-[2-(4-methoxy)-phenyl]-[1,7]-naphthyridine-6-formamido} acetic acid] | 0.64 mIU/mL | –
22 | 9.3 µM | Cc1nc(C(=O)NCC(=O)O)c(O)c2ccc(-c3ccc(C#N)cc3)nc12 [Compound 22, 2-{5-hydroxy-[2-(4-cyano)-phenyl]-8-methyl-[1,7]-naphthyridine-6-formamido} acetic acid] | 0.53 mIU/mL | –
